# According to patent publication US11707462B2, “Checkpoint kinase 1 (CHK1) inhibitors and uses thereof” (Boundless Bio, Inc., priority 2021, dated 2023):
# Legend:
# [1] = system: p-CHK1 (Ser345); assay: AlphaLISA SureFire Ultra p-CHK1 (Ser345) cellular assay in HT29 cells; format: cell-based; settings: Homo sapiens, HT-29, 16 h at 37° C.
# How it was run: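 HT29 cells treated with compounds over a 10-point, 3-fold dilution series for 16 h at 37° C., then lysed; p-CHK1 (Ser345) in lysates measured by AlphaLISA SureFire Ultra (acceptor and donor steps 1 h each at room temperature). IC50 from dose-response curve fits.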
# [2] = biological target: T1, Full-length human Chk1 protein (Homo sapiens, UniProt O14757); assay: Kinase HTRF biochemical assay (HTRF KinEASE), Chk1 enzyme activity; settings: full-length human Chk1, ATP 1 mM, 60 minutes at room temperature
# T1 construct: purchased Carna Biosciences, Inc. 02-117
# T1 sequence (O14757 1-476): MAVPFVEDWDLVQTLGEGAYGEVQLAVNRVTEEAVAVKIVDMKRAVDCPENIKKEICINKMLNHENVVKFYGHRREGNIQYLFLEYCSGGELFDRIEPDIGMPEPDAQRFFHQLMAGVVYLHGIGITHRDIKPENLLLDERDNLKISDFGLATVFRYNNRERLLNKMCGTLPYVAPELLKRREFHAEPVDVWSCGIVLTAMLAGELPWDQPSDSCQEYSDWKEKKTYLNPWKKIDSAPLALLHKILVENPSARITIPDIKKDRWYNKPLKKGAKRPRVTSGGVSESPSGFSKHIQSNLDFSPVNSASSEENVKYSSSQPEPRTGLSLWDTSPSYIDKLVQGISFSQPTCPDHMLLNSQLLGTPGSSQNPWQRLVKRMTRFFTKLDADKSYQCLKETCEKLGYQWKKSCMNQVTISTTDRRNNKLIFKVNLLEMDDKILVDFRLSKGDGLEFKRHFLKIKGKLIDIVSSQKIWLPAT
# How it was run: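 Full-length human Chk1 (0.012 ng/μL) in buffer with 5 mM MgCl2 and 1 mM DTT, preincubated with compound 10 min at room temperature; reaction with 120 nM biotinylated STK substrate 1 and 1 mM ATP for 60 min at room temperature. HTRF detection via cryptate antibody/streptavidin-XL665; IC50 from 10-point duplicate curves.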
IC50 [1] [nM],IC50 [2] [nM],SMILES
500 to 1000,10 to 100,"N#Cc1cnc(Nc2cc(-c3c(F)cc(Cl)cc3O[C@@H]3CC[C@H](N)C3)[nH]n2)cn1 [Example 3-24, 5-((5-(2-(((1R,3S)-3-aminocyclopentyl)oxy)-4-chloro-6-fluorophenyl)-1H-pyrazol-3-yl)amino)pyrazine-2-carbonitrile]"
100 to 500,10 to 100,"CN[C@@H]1CC[C@@H](Oc2cc(Cl)cc(F)c2-c2cc(Nc3cnc(C#N)cn3)n[nH]2)C1 [Example 3-25, 5-((5-(4-chloro-2-fluoro-6-(((1R,3R)-3-(methylamino)cyclopentyl)oxy)phenyl)-1H-pyrazol-3-yl)amino)pyrazine-2-carbonitrile]"
≤ 50,≤ 10,"Cc1ccc(O[C@@H]2CC[C@@H](N)C2)c(-c2cc(Nc3cnc(C#N)cn3)n[nH]2)c1F [Example 3-26, 5-((5-(6-(((1R,3R)-3-aminocyclopentyl)oxy)-2-fluoro-3-methylphenyl)-1H-pyrazol-3-yl)amino)pyrazine-2-carbonitrile]"
50 to 100,≤ 10,"Cc1cc(-c2cc(Nc3cnc(C#N)cn3)n[nH]2)c(O[C@@H]2CC[C@@H](N)C2)cc1F [Example 3-27, 5-((5-(2-(((1R,3R)-3-aminocyclopentyl)oxy)-4-fluoro-5-methylphenyl)-1H-pyrazol-3-yl)amino)pyrazine-2-carbonitrile]"
100 to 500,≤ 10,"N#Cc1cnc(Nc2cc(-c3c(O[C@@H]4CC[C@@H](N)C4)ccc(F)c3F)[nH]n2)cn1 [Example 3-28, 5-((5-(6-(((1R,3R)-3-aminocyclopentyl)oxy)-2,3-difluorophenyl)-1H-pyrazol-3-yl)amino)pyrazine-2-carbonitrile]"
100 to 500,≤ 10,"N#Cc1cnc(Nc2cc(-c3c(O[C@@H]4CC[C@@H](N)C4)ccc(Cl)c3F)[nH]n2)cn1 [Example 3-29, 5-((5-(6-(((1R,3R)-3-aminocyclopentyl)oxy)-3-chloro-2-fluorophenyl)-1H-pyrazol-3-yl)amino)pyrazine-2-carbonitrile]"
100 to 500,≤ 10,"N#Cc1cnc(Nc2cc(-c3c(F)cc(Cl)cc3O[C@@H]3CC[C@@H](N)C3)[nH]n2)cn1 [Example 3-30, 5-((5-(2-(((1R,3R)-3-aminocyclopentyl)oxy)-4-chloro-6-fluoropheny)-1H-pyrazol-3-yl)amino)pyrazine-2-carbonitrile]"
≤ 50,≤ 10,"N#Cc1cnc(Nc2cc(-c3c(F)cccc3O[C@@H]3CCCC[C@H](N)C3)[nH]n2)cn1 [Example 3-35, 5-((5-(2-(((1R,3S)-3-aminocycloheptyl)oxy)-6-fluorophenyl)-1H-pyrazol-3-yl)amino)pyrazine-2-carbonitrile]"
50 to 100,≤ 10,"N#Cc1cnc(Nc2cc(-c3c(F)cccc3O[C@H]3CCCC[C@H](N)C3)[nH]n2)cn1 [Example 3-38, 5-((5-(2-(((1S,3S)-3-aminocycloheptyl)oxy)-6-fluorophenyl)-1H-pyrazol-3-yl)amino)pyrazine-2-carbonitrile]"
≤ 50,≤ 10,"N#Cc1cnc(Nc2cc(-c3c(F)cccc3O[C@@H]3CCC[C@H]3N)[nH]n2)cn1 [Example 3-40, 5-((5-(2-(((1R,2R)-2-aminocyclopentyl)oxy)-6-fluorophenyl)-1H-pyrazol-3-yl)amino)pyrazine-2-carbonitrile]"
100 to 500,10 to 100,"N#Cc1cnc(Nc2cc(-c3ncccc3O[C@H]3CC[C@@H](N)C3)[nH]n2)cn1 [Example 3-42, 5-((5-(3-(((1S,3R)-3-aminocyclopentyl)oxy)pyridin-2-yl)-1H-pyrazol-3-yl)amino)pyrazine-2-carbonitrile]"
500 to 1000,10 to 100,"Cc1ccc(O[C@H]2CC[C@H](N)C2)c(-c2cc(Nc3cnc(C#N)cn3)n[nH]2)n1 [Example 3-44, 5-((5-(3-(((1S,3S)-3-aminocyclopentyl)oxy)-6-methylpyridin-2-yl)-1H-pyrazol-3-yl)amino)pyrazine-2-carbonitrile]"
≤ 50,≤ 10,"CN[C@@H]1CC[C@@H](Oc2ccc(C)nc2-c2cc(Nc3cnc(C#N)cn3)n[nH]2)C1 [Example 3-45, 5-((5-(6-methyl-3-(((1R,3R)-3-(methylamino)cyclopentyl)oxy)pyridin-2-yl)-1H-pyrazol-3-yl)amino)pyrazine-2-carbonitrile]"
50 to 100,≤ 10,"CC(C)c1ccc(O[C@@H]2CC[C@H](N)C2)c(-c2cc(Nc3cnc(C#N)cn3)n[nH]2)n1 [Example 3-46, 5-((5-(3-(((1R,3S)-3-aminocyclopentyl)oxy)-6-isopropylpyridin-2-yl)-1H-pyrazol-3-yl)amino)pyrazine-2-carbonitrile]"
50 to 100,≤ 10,"CCCc1ccc(O[C@@H]2CC[C@H](N)C2)c(-c2cc(Nc3cnc(C#N)cn3)n[nH]2)n1 [Example 3-47, 5-((5-(3-(((1R,3S)-3-aminocyclopentyl)oxy)-6-propylpyridin-2-yl)-1H-pyrazol-3-yl)amino)pyrazine-2-carbonitrile]"
≤ 50,≤ 10,"Cc1cc(O[C@@H]2CC[C@H](N)C2)c(-c2cc(Nc3cnc(C#N)cn3)n[nH]2)nc1C [Example 3-48, 5-((5-(3-(((1R,3S)-3-aminocyclopentyl)oxy)-5,6-dimethylpyridin-2-yl)-1H-pyrazol-3-yl)amino)pyrazine-2-carbonitrile]"
100 to 500,10 to 100,"N#Cc1cnc(Nc2cc(-c3nc(C(F)(F)F)ccc3O[C@@H]3CC[C@H](N)C3)[nH]n2)cn1 [Example 3-49, 5-((5-(3-(((1R,3S)-3-aminocyclopentyl)oxy)-6-(trifluoromethyl)pyridin-2-yl)-1H-pyrazol-3-yl)amino)pyrazine-2-carbonitrile]"
50 to 100,10 to 100,"Cc1nc(-c2cc(Nc3cnc(C#N)cn3)n[nH]2)c(O[C@@H]2CC[C@H](N)C2)cc1F [Example 3-50, 5-((5-(3-(((1R,3S)-3-aminocyclopentyl)oxy)-5-fluoro-6-methylpyridin-2-yl)-1H-pyrazol-3-yl)amino)pyrazine-2-carbonitrile]"
500 to 1000,100 to 500,"COc1c(C)ccc(O[C@@H]2CC[C@H](N)C2)c1-c1cc(Nc2cnc(C#N)cn2)n[nH]1 [Example 4-1, 5-((5-(6-(((1R,3S)-3-aminocyclopentyl)oxy)-2-methoxy-3-methylphenyl)-1H-pyrazol-3-yl)amino)pyrazine-2-carbonitrile]"
500 to 1000,10 to 100,"COc1c(Cl)ccc(O[C@@H]2CC[C@H](N)C2)c1-c1cc(Nc2cnc(C#N)cn2)n[nH]1 [Example 4-2, 5-((5-(6-(((1R,3S)-3-aminocyclopentyl)oxy)-3-chloro-2-methoxyphenyl)-1H-pyrazol-3-yl)amino)pyrazine-2-carbonitrile]"
> 1000,100 to 500,"COc1ccc(C)c(O[C@@H]2CC[C@H](N)C2)c1-c1cc(Nc2cnc(C#N)cn2)n[nH]1 [Example 4-3, 5-((5-(2-(((1R,3S)-3-aminocyclopentyl)oxy)-6-methoxy-3-methylphenyl)-1 H-pyrazol-3-yl)amino)pyrazine-2-carbonitrile]"

SMILES,IC50 [1] [nM],IC50 [2] [nM]
"N#Cc1cnc(Nc2cc(-c3c(F)cccc3O[C@@H]3CC[C@H]3N)[nH]n2)cn1 [Example 3-33, 5-((5-(2-((1R,2R)-2-aminocyclobutoxy)-6-fluorophenyl)-1H-pyrazol-3-yl)amino)pyrazine-2-carbonitrile]",50 to 100,10 to 100
